Paper PMC8976073 (Nature Communications, 2022)
Where a SMILES comes first, the peptide text is derived from it. The star is where a group is joined. For = O=C*

Assays:
[1] = molecular target: T1, FPR2 (Homo sapiens, UniProt P25090); experiment: Competition binding: inhibition of WK(FITC)YMVm binding to FPR2 (wild type and mutants), HEK293F cells; details: FPR2 WT, mean ± SEM
T1 construct: expressed in transfected cells; host or cells: HEK293F cells, pTT5 vector, co-transfected with GαΔ6qi4myr (1:2 w/w)
T1 sequence (P25090 1-351): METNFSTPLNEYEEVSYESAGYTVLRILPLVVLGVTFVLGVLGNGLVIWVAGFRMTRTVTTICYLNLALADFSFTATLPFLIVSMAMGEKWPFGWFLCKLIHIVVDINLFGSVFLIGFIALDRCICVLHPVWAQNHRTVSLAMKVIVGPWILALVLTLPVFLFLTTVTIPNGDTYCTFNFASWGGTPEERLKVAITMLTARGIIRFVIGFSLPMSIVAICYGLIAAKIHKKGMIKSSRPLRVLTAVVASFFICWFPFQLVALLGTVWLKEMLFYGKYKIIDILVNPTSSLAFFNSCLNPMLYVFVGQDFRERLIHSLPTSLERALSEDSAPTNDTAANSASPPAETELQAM
Experimental: (§1) The genes of wild-type FPR1 and FPR2 and mutants with a Flag tag at the N termini were cloned into pTT5 vector (Invitrogen) and expressed in HEK293F cells (Invitrogen). Cells were harvested 48 h post transfection with 1 μg ml^−1 plasmid. Cell-surface expression of the receptors was measured by mixing 10 μl cells with 15 μl of TBS buffer supplemented with 4% BSA, 20% (v/v) viability-staining solution 7-AAD (Invitrogen, Cat#00-6993-50), and 0.1% (v/v) anti-FLAG M2-FITC antibody (Sigma, Cat#F4049) at 4 °C for 20 min. After incubation, 175 μl of TBS buffer was added and the fluorescent signal was measured using a flow-cytometry reader (Guava easyCyte HT, Millipore). Then, the cells were washed and resuspended to a final concentration of 1 × 10^6 cells per ml in Hanks’ Balanced Salt Solution (HBSS) buffer supplemented with 0.5% bovine serum albumin (BSA) and 20 mM HEPES, pH 7.4.
(§2) The mean fluorescent intensity of each well was then read by the FCM reader. Total binding and nonspecific binding were measured in the absence and presence of the unlabeled ligand (200 μM WKYMVm), respectively. […] Mean fluorescent-intensity values were measured by flow cytometry. Data were analyzed using Prism 8.0 (GraphPad software).

[2] = molecular target: T2, FPR2 (Homo sapiens, UniProt P25090, S211L); experiment: as above; details: FPR2 Construct 2, mean ± SEM
T2 construct: expressed in transfected cells; host or cells: HEK293F cells, pTT5 vector
T2 sequence (P25090 with tags, fused parts or gaps S211L): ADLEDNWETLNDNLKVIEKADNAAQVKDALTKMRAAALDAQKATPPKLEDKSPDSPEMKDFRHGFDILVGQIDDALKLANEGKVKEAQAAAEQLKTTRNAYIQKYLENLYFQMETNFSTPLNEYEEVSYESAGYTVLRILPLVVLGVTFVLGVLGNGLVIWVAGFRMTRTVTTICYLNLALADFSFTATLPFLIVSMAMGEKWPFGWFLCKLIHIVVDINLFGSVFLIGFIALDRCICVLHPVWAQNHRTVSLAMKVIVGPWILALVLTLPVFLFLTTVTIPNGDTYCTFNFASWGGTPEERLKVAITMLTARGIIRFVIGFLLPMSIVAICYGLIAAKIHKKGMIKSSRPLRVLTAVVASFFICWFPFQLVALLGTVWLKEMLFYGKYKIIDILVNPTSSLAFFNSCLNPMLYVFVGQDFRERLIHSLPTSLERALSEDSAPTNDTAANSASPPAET
Experimental: as §1, §2

[3] = molecular target: T1, FPR2; experiment: Inositol-phosphate (IP) accumulation assay, FPR2 (wild type and mutants) with chimeric GαΔ6qi4myr in HEK293F cells; type: cell-based; details: FPR2 WT; mean ± SEM; SEM
Experimental: Flag-tagged wild-type FPR1 and FPR2 and mutants were cloned into the pTT5 vector and expressed in HEK293F cells. Cells were cotransfected with the plasmids of receptor and a chimeric Gα protein GαΔ6qi4myr, which redirects the Gαi signaling pathway to the Gαq phospholipase-C pathway, at a ratio of 1:2 (w/w), and were harvested 48 h post transfection. The cell-surface expression was measured as described above.
The IP-One Gq assay kit (Cisbio Bioassays, 62IPAPEB) was used to measure the peptide agonist-induced IP production. […] Then, the cells were supplemented with 3 μl cryptate-labeled anti-IP1 monoclonal antibody (1:20 diluted in lysis and detection buffer) and 3 μl d2-labeled IP1, and incubated at room temperature for another 1 h. […] The accumulation of IP1, EC50, and pEC50 were calculated using nonlinear regression (curve fit) according to a standard dose–response curve in GraphPad Prism 8.0 (GraphPad software).

[4] = tested on: FPR1; experiment: Competition binding: inhibition of WK(FITC)YMVm binding to FPR1 (wild type and mutants), HEK293F cells; design: species or system human; details: FPR1 F81L, F102H, Y257F and their combination
Experimental: as §1, §2

[5] = tested on: FPR2; details: cited from earlier work
Excerpt: The role of these residues in determining ligand selectivity was investigated by mutagenesis studies.

Ki [1] [nM]	Molecule	other results
813	CC[C@H](C)[C@H](NC(=O)[C@H](CCC(=O)O)NC(=O)[C@H](CO)NC(=O)[C@@H](NC(=O)[C@H](CC(C)C)NC(=O)[C@H](CC(C)C)NC(=O)[C@H](CC(C)C)NC(=O)[C@H](CC(C)C)NC(=O)[C@H](CS)NC(=O)[C@H](CO)NC(=O)[C@H](Cc1ccccc1)NC(=O)CNC(=O)[C@H](CCCNC(=N)N)NC(=O)[C@H](C)NC(=O)[C@H](C)NC(=O)[C@H](CCSC)NC=O)[C@@H](C)O)C(=O)N[C@@H](CC(=O)O)C(=O)N[C@@H](CC(C)C)C(=O)N1CCC[C@H]1C(=O)N[C@H](C(=O)N[C@@H](CCCCN)C(=O)N[C@@H](CCCNC(=N)N)C(=O)N[C@@H](CCCNC(=N)N)C(=O)N[C@@H](C)C(=O)O)C(C)C [P3A] (For-MAARGFSCLLLLTSEIDLPVKRRA-OH)	–
282	CC[C@H](C)[C@H](NC(=O)[C@H](CCC(=O)O)NC(=O)[C@H](CO)NC(=O)[C@@H](NC(=O)[C@H](CC(C)C)NC(=O)[C@H](CC(C)C)NC(=O)[C@H](CC(C)C)NC(=O)[C@H](CC(C)C)NC(=O)[C@H](CS)NC(=O)[C@H](CO)NC(=O)[C@H](Cc1ccccc1)NC(=O)CNC(=O)[C@H](C)NC(=O)[C@@H]1CCCN1C(=O)[C@H](C)NC(=O)[C@H](CCSC)NC=O)[C@@H](C)O)C(=O)N[C@@H](CC(=O)O)C(=O)N[C@@H](CC(C)C)C(=O)N1CCC[C@H]1C(=O)N[C@H](C(=O)N[C@@H](CCCCN)C(=O)N[C@@H](CCCNC(=N)N)C(=O)N[C@@H](CCCNC(=N)N)C(=O)N[C@@H](C)C(=O)O)C(C)C [R4A] (For-MAPAGFSCLLLLTSEIDLPVKRRA-OH)	–
1410	CC[C@H](C)[C@H](NC(=O)[C@H](CC(N)=O)NC(=O)[C@@H](NC(=O)[C@H](Cc1ccccc1)NC(=O)[C@H](Cc1ccc(O)cc1)NC(=O)[C@H](CCSC)NC=O)[C@@H](C)CC)C(=O)N[C@@H](CC(C)C)C(=O)N[C@H](C(=O)N[C@@H](CC(C)C)C(=O)O)[C@@H](C)O [fM9] (For-MYFINILTL-OH)	Ki [2]: 2630 nM; EC50 [3]: 813 nM

The next lines start with the molecule.

Molecule	Ki [1] [nM]	other results
CC[C@H](C)[C@H](NC(=O)[C@H](CCC(=O)O)NC(=O)[C@H](CO)NC(=O)[C@@H](NC(=O)[C@H](CC(C)C)NC(=O)[C@H](CC(C)C)NC(=O)[C@H](CC(C)C)NC(=O)[C@H](CC(C)C)NC(=O)[C@H](CS)NC(=O)[C@H](CO)NC(=O)[C@H](Cc1ccccc1)NC(=O)CNC(=O)[C@H](CCCNC(=N)N)NC(=O)[C@@H]1CCCN1C(=O)[C@H](Cc1c[nH]c2ccccc12)NC(=O)[C@H](CCSC)NC=O)[C@@H](C)O)C(=O)N[C@@H](CC(=O)O)C(=O)N[C@@H](CC(C)C)C(=O)N1CCC[C@H]1C(=O)N[C@H](C(=O)N[C@@H](CCCCN)C(=O)N[C@@H](CCCNC(=N)N)C(=O)N[C@@H](CCCNC(=N)N)C(=O)N[C@@H](C)C(=O)O)C(C)C [A2W] (For-MWPRGFSCLLLLTSEIDLPVKRRA-OH)	46.8	–
CC[C@H](C)[C@H](NC(=O)[C@H](CCC(=O)O)NC(=O)[C@H](CO)NC(=O)[C@@H](NC(=O)[C@H](CC(C)C)NC(=O)[C@H](CC(C)C)NC(=O)[C@H](CC(C)C)NC(=O)[C@H](CC(C)C)NC(=O)[C@H](CS)NC(=O)[C@H](CO)NC(=O)[C@H](C)NC(=O)CNC(=O)[C@H](CCCNC(=N)N)NC(=O)[C@@H]1CCCN1C(=O)[C@H](C)NC(=O)[C@H](CCSC)NC=O)[C@@H](C)O)C(=O)N[C@@H](CC(=O)O)C(=O)N[C@@H](CC(C)C)C(=O)N1CCC[C@H]1C(=O)N[C@H](C(=O)N[C@@H](CCCCN)C(=O)N[C@@H](CCCNC(=N)N)C(=O)N[C@@H](CCCNC(=N)N)C(=O)N[C@@H](C)C(=O)O)C(C)C [F6A] (For-MAPRGASCLLLLTSEIDLPVKRRA-OH)	100	–
CC[C@H](C)[C@H](NC(=O)[C@H](CCC(=O)O)NC(=O)[C@H](CO)NC(=O)[C@@H](NC(=O)[C@H](CC(C)C)NC(=O)[C@H](C)NC(=O)[C@H](CC(C)C)NC(=O)[C@H](CC(C)C)NC(=O)[C@H](CS)NC(=O)[C@H](CO)NC(=O)[C@H](Cc1ccccc1)NC(=O)CNC(=O)[C@H](CCCNC(=N)N)NC(=O)[C@@H]1CCCN1C(=O)[C@H](C)NC(=O)[C@H](CCSC)NC=O)[C@@H](C)O)C(=O)N[C@@H](CC(=O)O)C(=O)N[C@@H](CC(C)C)C(=O)N1CCC[C@H]1C(=O)N[C@H](C(=O)N[C@@H](CCCCN)C(=O)N[C@@H](CCCNC(=N)N)C(=O)N[C@@H](CCCNC(=N)N)C(=O)N[C@@H](C)C(=O)O)C(C)C [L11A] (For-MAPRGFSCLLALTSEIDLPVKRRA-OH)	631	–
CC[C@H](C)[C@H](NC(=O)[C@H](CCC(=O)O)NC(=O)[C@H](CO)NC(=O)[C@@H](NC(=O)[C@H](C)NC(=O)[C@H](CC(C)C)NC(=O)[C@H](CC(C)C)NC(=O)[C@H](CC(C)C)NC(=O)[C@H](CS)NC(=O)[C@H](CO)NC(=O)[C@H](Cc1ccccc1)NC(=O)CNC(=O)[C@H](CCCNC(=N)N)NC(=O)[C@@H]1CCCN1C(=O)[C@H](C)NC(=O)[C@H](CCSC)NC=O)[C@@H](C)O)C(=O)N[C@@H](CC(=O)O)C(=O)N[C@@H](CC(C)C)C(=O)N1CCC[C@H]1C(=O)N[C@H](C(=O)N[C@@H](CCCCN)C(=O)N[C@@H](CCCNC(=N)N)C(=O)N[C@@H](CCCNC(=N)N)C(=O)N[C@@H](C)C(=O)O)C(C)C [L12A] (For-MAPRGFSCLLLATSEIDLPVKRRA-OH)	832	–
CSCC[C@H](NC=O)C(=O)N[C@@H](CC(C)C)C(=O)N[C@@H](Cc1ccccc1)C(=O)O [fMLF, N-formyl–Met–Leu–Phe]	–	effect of mutations on binding affinity (in words) [4]: little effect on the binding affinity; agonism at FPR2 (in words) [5]: weak agonist
Humanin [HN]	–	agonistic activity FPR2 versus FPR1 (in words) [5]: much higher agonistic activity at FPR2 than at FPR1; fold higher binding affinity to FPR2 than Aβ42 [5]: over 15 fold
fMLFK [formylated tetrapeptide with a basic C-terminal residue]	–	binding to FPR2 (in words) ([5]; compared with fMLFE): more favorable for binding to FPR2
